Test results: PubChem BioAssay AID1259407 (Chemical Carcinogenesis Research Information System (CCRIS), 2018)
Active and inactive are the calls of the source. The rule behind the calls is not given here.

System: CCRIS mutagenicity, Ames/micronucleus/aberration tests
Test: CCRIS mutagenicity studies
[1] = Test System: AMES SALMONELLA TYPHIMURIUM, Strain/Indicator: TA100, Metabolic Activation: NONE, Method: STANDARD PLATE
[2] = Test System: AMES SALMONELLA TYPHIMURIUM, Strain/Indicator: TA1535, Metabolic Activation: NONE, Method: STANDARD PLATE
[3] = Test System: AMES SALMONELLA TYPHIMURIUM, Strain/Indicator: TA100, Metabolic Activation: NONE, Method: PREINCUBATION
[4] = Test System: AMES SALMONELLA TYPHIMURIUM, Strain/Indicator: TA100, Metabolic Activation: RAT, LIVER, S-9, PCB, Method: PREINCUBATION

In the case of `CC(C)N1C(=O)c2ccccc2NS1(=O)=O`, the mutagenic call (Test System: AMES SALMONELLA TYPHIMURIUM, Strain/Indicator: TA97, Metabolic Activation: NONE, Method: STANDARD PLATE) was “inactive; negative”, the mutagenic call (Test System: AMES SALMONELLA TYPHIMURIUM, Strain/Indicator: TA97, Metabolic Activation: RAT, LIVER, S-9, DELOR 103, Method: STANDARD PLATE) was “inactive; negative” and the mutagenic call (Test System: AMES SALMONELLA TYPHIMURIUM, Strain/Indicator: TA98, Metabolic Activation: NONE, Method: STANDARD PLATE) was “inactive; negative”. For the same compound, the mutagenic call (Test System: AMES SALMONELLA TYPHIMURIUM, Strain/Indicator: TA98, Metabolic Activation: RAT, LIVER, S-9, DELOR 103, Method: STANDARD PLATE) was “inactive; negative”, the mutagenic call [1] was “inactive; negative” and the mutagenic call (Test System: AMES SALMONELLA TYPHIMURIUM, Strain/Indicator: TA100, Metabolic Activation: RAT, LIVER, S-9, DELOR 103, Method: STANDARD PLATE) was “inactive; negative”. For the same compound, the mutagenic call [2] was “inactive; negative”, the mutagenic call (Test System: AMES SALMONELLA TYPHIMURIUM, Strain/Indicator: TA1535, Metabolic Activation: RAT, LIVER, S-9, DELOR 103, Method: STANDARD PLATE) was “inactive; negative” and the mutagenic call (Test System: AMES SALMONELLA TYPHIMURIUM, Strain/Indicator: TA1538, Metabolic Activation: NONE, Method: STANDARD PLATE) was “inactive; negative”. For the same compound, the mutagenic call (Test System: AMES SALMONELLA TYPHIMURIUM, Strain/Indicator: TA1538, Metabolic Activation: RAT, LIVER, S-9, DELOR 103, Method: STANDARD PLATE) was “inactive; negative”.

In the case of `CC(C)COS(C)(=O)=O`, the mutagenic call (End Point: IN VITRO MICRONUCLEUS, Test System: MOUSE LYMPHOMA L5178Y CELLS, Metabolic Activation: NONE) was “inactive; negative; significant increase at highly/excessively cytotoxic doses”, the mutagenic call (End Point: IN VITRO MICRONUCLEUS, Test System: MOUSE LYMPHOMA L5178Y CELLS, Metabolic Activation: RAT, LIVER, S-9) was “inactive; negative” and the mutagenic call [1] was “active; positive”. For the same compound, the mutagenic call (Test System: AMES SALMONELLA TYPHIMURIUM, Strain/Indicator: TA100, Metabolic Activation: RAT, LIVER, S-9, Method: STANDARD PLATE) was “active; positive”.

For `COc1ccc(/C=N/n2nnc3c([nH]c4ccccc43)c2=O)cc1`, the mutagenic call (Test System: AMES SALMONELLA TYPHIMURIUM, Strain/Indicator: TA97, Metabolic Activation: NONE, Method: PREINCUBATION) was “active; positive”, the mutagenic call (Test System: AMES SALMONELLA TYPHIMURIUM, Strain/Indicator: TA97, Metabolic Activation: RAT, LIVER, S-9, AROCLOR 1254 (10%), Method: PREINCUBATION) was “active; positive” and the mutagenic call (Test System: AMES SALMONELLA TYPHIMURIUM, Strain/Indicator: TA98, Metabolic Activation: NONE, Method: PREINCUBATION) was “active; positive”. For the same compound, the mutagenic call (Test System: AMES SALMONELLA TYPHIMURIUM, Strain/Indicator: TA98, Metabolic Activation: RAT, LIVER, S-9, AROCLOR 1254 (10%), Method: PREINCUBATION) was “active; positive”, the mutagenic call [3] was “active; positive” and the mutagenic call (Test System: AMES SALMONELLA TYPHIMURIUM, Strain/Indicator: TA100, Metabolic Activation: RAT, LIVER, S-9, AROCLOR 1254 (10%), Method: PREINCUBATION) was “active; positive”. The mutagenic call (Test System: AMES SALMONELLA TYPHIMURIUM, Strain/Indicator: TA102, Metabolic Activation: NONE, Method: PREINCUBATION) was “inactive; negative” and the mutagenic call (Test System: AMES SALMONELLA TYPHIMURIUM, Strain/Indicator: TA102, Metabolic Activation: RAT, LIVER, S-9, AROCLOR 1254 (10%), Method: PREINCUBATION) was “inactive; negative”.

For `Cc1ccc2c(c1)C(C)c1ccccc1-2` (stereo not given), the mutagenic call (Test System: AMES SALMONELLA TYPHIMURIUM, Strain/Indicator: TA98, Metabolic Activation: RAT, LIVER, S-9, AROCLOR 1254, Method: STANDARD PLATE) was “inactive; negative” and the mutagenic call (Test System: AMES SALMONELLA TYPHIMURIUM, Strain/Indicator: TA100, Metabolic Activation: RAT, LIVER, S-9, AROCLOR 1254, Method: STANDARD PLATE) was “active; positive”.

With `CN(N=O)C(=O)Oc1cccc2c1OC(C)(C)C2` the mutagenic call (End Point: IN VIVO MICRONUCLEUS, Test System: BONE MARROW POLYCHROMATIC ERYTHROCYTES, Species: MOUSE, Strain/Sex: KM/MALE, FEMALE, Route: IP INJECTION) was “active; positive”.

For `C/C=C1\CC(C)C(C)(OC(C)=O)C(=O)OCC2=C3C(CC[N+]3(C)C=C2)OC1=O` (stereo not given), the mutagenic call (Test System: AMES SALMONELLA TYPHIMURIUM, Strain/Indicator: TA100, Metabolic Activation: HAMSTER, LIVER, S-9, PCB, Method: PREINCUBATION) was “active; positive” and the mutagenic call [4] was “active; positive”.

In the case of `CCCCN(C[C@H](CO)OCc1ccccc1)N=O`, the mutagenic call [3] was “inactive; negative” and the mutagenic call [4] was “active; positive”.

In the case of `CCN=NNCC`, the mutagenic call [2] was “active; positive”.
